One may read the IC50 as the concentration that gives 50% inhibition.

The structures appear in SMILES notation. Counter-ions that a name gives are not always drawn. Like-named read-outs stand apart in the source and are kept apart here. A value given as a limit tells only on which side of the number the result lay.

The source of these data is patent US8455525B2, “Selective androgen receptor modulators” (Radius Health, Inc., priority 2008, dated 2013).

This test has as its target T1, androgen receptor (AR) (Rattus norvegicus, UniProt P15207).
T1 construct: purchased Invitrogen, Madison, Wis
T1 sequence (P15207 651-902 limits assumed): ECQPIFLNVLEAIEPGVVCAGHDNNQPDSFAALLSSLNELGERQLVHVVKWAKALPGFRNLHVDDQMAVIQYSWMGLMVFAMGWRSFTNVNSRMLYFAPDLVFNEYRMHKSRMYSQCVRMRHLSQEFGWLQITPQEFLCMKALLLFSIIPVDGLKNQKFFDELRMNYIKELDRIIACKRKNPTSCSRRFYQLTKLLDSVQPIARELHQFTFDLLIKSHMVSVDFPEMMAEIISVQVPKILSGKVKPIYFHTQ
Description: androgen receptor binding assay (fluorescence polarization, Fluormone AL Green competition). The method, then:
The assay was performed as specified by the manufacturer (Invitrogen, Madison, Wis.). Briefly, 1 μl of 10 mM compound was added to 500 μl of AR screening buffer in a 1.5 ml eppendorf tube to make a 2×10^−5M stock. 10-fold serial dilutions of the test compounds were prepared ranging in concentration from 10^−5M to 10^−12M. Each dilution was added in triplicate to a black 384-microtiter plate. The test compounds will be diluted 2-fold in the final reaction. 2×AR-Fluormone™ complex was prepared with 2 nM Flourmone AL Green™ and 30 nM AR. 25 μl of 2× complex was aliquoted to each reaction well, such that the final reaction volume was 50 μl per well. Plate was sealed with a foil cover and incubated in the dark at room temperature for 4 h. Polarization values for each well were measured. The polarization values were plotted against the concentration of the test compound. […] As a control, a competition curve for R1881 (methyltrienolone) was performed for each assay. Curve Fitting was performed using GraphPad Prism® software from GraphPad™ Software Inc. Binding data are reported as a single determination if the experiment was run once only and as the average of experiments if the binding experiment was performed two or more times with that compound.
Where multiple data points have been taken, the value reported is the average of the multiple determinations.
For orientation: Fluorescence polarisation rises when a labelled molecule tumbles more slowly, as on binding a larger partner.

Setting [1] is: single determination or average of multiple determinations, read-out: Binding IC50 (AR-Binding Affinity).

As to `Cc1c(N[C@@H](c2nnc(-c3ccc(C#N)cc3)o2)[C@@H](C)O)ccc(C#N)c1C(F)(F)F` [Example 31, 4-((1R,2R)-1-(5-(4-cyanophenyl)-1,3,4-oxadiazol-2-yl)-2-hydroxypropylamino)-3-methyl-2-(trifluoromethyl)benzonitrile], the IC50 was 5.9 nM.

`Cc1c(N[C@@H](c2nnc(-c3ccc(Cl)c(Cl)c3)o2)[C@@H](C)O)ccc(C#N)c1Cl` [Example 32, 2-Chloro-4-((1R,2R)-1-(5-(3,4-dichlorophenyl)-1,3,4-oxadiazol-2-yl)-2-hydroxypropylamino)-3-methylbenzonitrile] came in with an IC50 of 2 nM.

`C[C@H](O)[C@@H](Nc1ccc(C#N)c(Cl)c1Cl)c1nnc(-c2ccccc2)o1` [Example 33, 2,3-dichloro-4-((1R,2S)-2-hydroxy-1-(5-phenyl-1,3,4-oxadiazol-2-yl)propylamino)benzonitrile] displayed an IC50 of 15 nM.

Take `C[C@H](O)[C@@H](Nc1ccc(C#N)c(Cl)c1Cl)c1nnc(-c2ccc(Cl)cc2)o1` [Example 34, 2,3-Dichloro-4-((1R,2S)-1-(5-(4-chlorophenyl)-1,3,4-oxadiazol-2-yl)-2-hydroxypropylamino)benzonitrile]: the IC50 stood at 4 nM.

Molecule `Cc1c(N[C@@H](c2nnc(-c3ccc(F)cc3F)o2)[C@@H](C)O)ccc(C#N)c1Cl` [Example 35, 2-Chloro-4-((1R,2R)-1-(5-(2,4-difluorophenyl)-1,3,4-oxadiazol-2-yl)-2-hydroxypropylamino)-3-methylbenzonitrile] returned a concentration for half-maximal inhibition (IC50) of 0.2 nM.

The molecule `Cc1c(N[C@@H](c2ncc(-c3ccccc3)o2)[C@H](C)O)ccc(C#N)c1Cl` [Example 36, 2-Chloro-4-((1R,2S)-2-hydroxy-1-(5-phenyloxazol-2-yl)propylamino)-3-methylbenzonitrile] yielded a concentration for half-maximal inhibition (IC50) of 12 nM.

Molecule `Cc1c(N[C@@H](c2nnc(-c3ccc(O)c(Cl)c3)o2)[C@H](C)O)ccc(C#N)c1Cl` [Example 37, 2-Chloro-4-((1R,2S)-1-(5-(3-chloro-4-hydroxyphenyl)-1,3,4-oxadiazol-2-yl)-2-hydroxypropylamino)-3-methylbenzonitrile] displayed an IC50 of 0.2 nM.

`Cc1c(N[C@@H](c2nnc(-c3ccc(F)c(F)c3)o2)[C@@H](C)O)ccc(C#N)c1Cl` [Example 39, 2-Chloro-4-((1R,2R)-1-(5-(3,4-difluorophenyl)-1,3,4-oxadiazol-2-yl)-2-hydroxypropylamino)-3-methylbenzonitrile]: the IC50 worked out at 0.1 nM.

On to `Cc1c(N[C@@H](c2nnc(-c3ccc(F)c(O)c3)o2)[C@H](C)O)ccc(C#N)c1Cl` [Example 40, 2-Chloro-4-((1R,2S)-1-(5-(4-fluoro-3-hydroxyphenyl)-1,3,4-oxadiazol-2-yl)-2-hydroxypropylamino)-3-methylbenzonitrile], for which the IC50 amounted to 0.2 nM.

`Cc1c(N[C@@H](c2nnc(-c3ccc(F)c(O)c3)o2)[C@@H](C)O)ccc(C#N)c1Cl` [Example 41, 2-Chloro-4-((1R,2R)-1-(5-(4-fluoro-3-hydroxyphenyl)-1,3,4-oxadiazol-2-yl)-2-hydroxypropylamino)-3-methylbenzonitrile] displayed an IC50 of 0.02 nM.

With `Cc1c(N[C@@H](c2nnc(-c3ccc(C#N)cc3)o2)[C@H](C)O)ccc(C#N)c1C(F)(F)F` [Example 42, 4-((1R,2S)-1-(5-(4-Cyanophenyl)-1,3,4-oxadiazol-2-yl)-2-hydroxypropylamino)-3-methyl-2-(trifluoromethyl)benzonitrile], the IC50 was 9 nM.

Molecule `Cc1nnc([C@H](Nc2ccc(C#N)c(Cl)c2C)[C@H](C)O)o1` [Example 43, 2-Chloro-4-((1R,2S)-2-hydroxy-1-(5-methyl-1,3,4-oxadiazol-2-yl)propylamino)-3-methylbenzonitrile hydrochloride] yielded an IC50 of 3 nM.

For `C[C@@H](O)[C@@H](Nc1ccc(C#N)c(C(F)(F)F)c1)c1nnc(-c2ccc(C#N)cc2)o1` [Example 44, 4-((1R,2R)-1-(5-(4-Cyanophenyl)-1,3,4-oxadiazol-2-yl)-2-hydroxypropylamino)-2-(trifluoro-methyl)benzonitrile], the IC50 stood at 5 nM.

With `C[C@H](O)[C@@H](Nc1ccc(C#N)c(C(F)(F)F)c1)c1nnc(-c2ccc(C#N)cc2)o1` [Example 45, 4-((1R,2S)-1-(5-(4-Cyanophenyl)-1,3,4-oxadiazol-2-yl)-2-hydroxypropylamino)-2-(trifluoromethyl)benzonitrile], the half-maximal inhibitory concentration (IC50) is 470 nM.

Turning to `C[C@@H](O)[C@@H](Nc1ccc(C#N)c(Cl)c1)c1nnc(-c2ccc(C#N)cc2)o1` [Example 46, 2-Chloro-4-((1R,2R)-1-(5-(4-cyanophenyl)-1,3,4-oxadiazol-2-yl)-2-hydroxypropylamino)-benzonitrile], the IC50 came out at 6 nM.

As for `CCc1c(N[C@@H](c2nnc(-c3ccc(C#N)cc3)o2)[C@H](C)O)ccc(C#N)c1Cl` [Example 47, 2-Chloro-4-((1R,2S)-1-(5-(4-cyanophenyl)-1,3,4-oxadiazol-2-yl)-2-hydroxypropylamino)-3-ethylbenzonitrile], the IC50 was 1 nM.

Molecule `C[C@H](O)[C@@H](Nc1ccc(C#N)c(Cl)c1)c1nnc(-c2ccc(S(C)(=O)=O)cc2)o1` [Example 48, 2-Chloro-4-((1R,2S)-2-hydroxy-1-(5-(4-(methylsulfonyl)phenyl)-1,3,4-oxadiazol-2-yl)propylamino)benzonitrile] registered an IC50 above 1000 nM.

`Cc1c(N[C@@H](c2nnc(-c3ccc(CO)cc3)o2)[C@H](C)O)ccc(C#N)c1Cl` [Example 49, 2-Chloro-4-((1R,2S)-2-hydroxy-1-(5-(4-(hydroxymethyl)phenyl)-1,3,4-oxadiazol-2-yl)propylamino)-3-methylbenzonitrile] gave an IC50 of 2 nM.

`C[C@H](O)[C@@H](Nc1ccc(C#N)c(Cl)c1)c1nnc(-c2ccc(C#N)cc2)o1` [Example 50, 2-Chloro-4-((1R,2S)-1-(5-(4-cyanophenyl)-1,3,4-oxadiazol-2-yl)-2-hydroxypropylamino)benzonitrile] displayed an IC50 of 5 nM.

For the molecule `C[C@@H](O)[C@@H](Nc1ccc(C#N)c2ccccc12)c1nnc(-c2ccc(C#N)cc2)o1` [Example 51, 4-((1R,2R)-1-(5-(4-Cyanophenyl)-1,3,4-oxadiazol-2-yl)-2-hydroxypropylamino)-1-naphthonitrile], the IC50 under setting [1] amounted to 600 nM.

`C[C@@H](O)[C@@H](Nc1ccc(C#N)c2ccccc12)c1nnc(-c2ccccc2)o1` [Example 52, 4-((1R,2R)-2-Hydroxy-1-(5-phenyl-1,3,4-oxadiazol-2-yl)propylamino)-1-naphthonitrile] gave an IC50 of 9 nM.

`Cc1c(N[C@@H](c2nnc(-c3ccc(-n4cccn4)cc3)o2)[C@H](C)O)ccc(C#N)c1Cl` [Example 53, 4-((1R,2S)-1-(5-(4-(1H-Pyrazol-1-yl)phenyl)-1,3,4-oxadiazol-2-yl)-2-hydroxypropylamino)-2-chloro-3-methylbenzonitrile] registered an IC50 of 1 nM.

`CCc1c(N[C@@H](c2nnc(-c3ccc(C#N)cc3)o2)[C@@H](C)O)ccc(C#N)c1Cl` [Example 54, 2-Chloro-4-((1R,2R)-1-(5-(4-cyanophenyl)-1,3,4-oxadiazol-2-yl)-2-hydroxypropylamino)-3-ethylbenzonitrile] displayed an IC50 of 1 nM.

The molecule `Cc1c(N[C@@H](c2nnc(-c3ccc(Cl)c(Cl)c3)o2)[C@H](C)O)ccc(C#N)c1Cl` [Example 55, 2-Chloro-4-((1R,2S)-1-(5-(3,4-dichlorophenyl)-1,3,4-oxadiazol-2-yl)-2-hydroxypropylamino)-3-methylbenzonitrile] displayed a half-inhibitory concentration (IC50) of 11 nM.

With `Cc1c(N[C@@H](c2nnc(-c3ccc(Br)cc3)o2)[C@H](C)O)ccc(C#N)c1Cl` [Example 56, 4-((1R,2S)-1-(5-(4-Bromophenyl)-1,3,4-oxadiazol-2-yl)-2-hydroxypropylamino)-2-chloro-3-methylbenzonitrile], the IC50 was 10 nM.

Turning to `Cc1c(N[C@@H](c2nnc(-c3ccc(I)cc3)o2)[C@H](C)O)ccc(C#N)c1Cl` [Example 57, 2-Chloro-4-((1R,2S)-2-hydroxy-1-(5-(4-iodophenyl)-1,3,4-oxadiazol-2-yl)propylamino)-3-methylbenzonitrile], the IC50 came to 11 nM.

The molecule `Cc1c(N[C@H](CO)c2nnc(-c3ccc(C#N)cc3)o2)ccc(C#N)c1Cl` [Example 58, (R)-2-Chloro-4-(1-(5-(4-cyanophenyl)-1,3,4-oxadiazol-2-yl)-2-hydroxyethylamino)-3-methylbenzonitrile] displayed a half-inhibitory concentration (IC50) of 10 nM.

The molecule `C[C@@H](O)[C@@H](Nc1ccc(C#N)c(C(F)(F)F)c1)c1nnc(-c2ccc(S(C)(=O)=O)cc2)o1` [Example 59, 4-((1R,2R)-2-hydroxy-1-(5-(4-(methylsulfonyl)phenyl)-1,3,4-oxadiazol-2-yl)propylamino)-2-(trifluoromethyl)benzonitrile] returned an IC50 above 1000 nM.

As for `C[C@H](O)[C@@H](Nc1ccc(C#N)c2sccc12)c1nnc(-c2ccc(C#N)cc2)o1` [Example 60, 4-((1R,2S)-1-(5-(4-cyanophenyl)-1,3,4-oxadiazol-2-yl)-2-hydroxypropylamino)benzo[b]thiophene-7-carbonitrile], under setting [1], the IC50 turned out to be 8 nM.
